Results reported in ChEMBL document CHEMBL1765043, “New synthetic triterpenoids: potent agents for prevention and treatment of tissue injury caused by inflammatory and oxidative stress” (J Nat Prod, 2011).

Tested on: RAW264.7
Assay: Antiinflammatory activity against IFN-gamma, TNF-alpha and IL-1-stimulated mouse RAW264.7 cells assessed as inhibition of cellular iNOS synthesis
Assay type: functional, cell-based

SMILES | IC50
C[C@H]1[C@H](C)CC[C@]2(C(=O)O)CC[C@]3(C)C(=CC(=O)[C@@H]4[C@@]5(C)C=CC(=O)C(C)(C)[C@@H]5CC[C@]43C)[C@H]12 | 17.6 µM
C[C@H]1[C@H](C)CC[C@]2(C(=O)O)CC[C@]3(C)C(=CC[C@@H]4[C@@]5(C)C=CC(=O)C(C)(C)[C@@H]5CC[C@]43C)[C@H]12 | 6 µM
CC1(C)CC[C@]2(C(=O)O)CC[C@]3(C)[C@H](C(=O)C=C4[C@@]5(C)C=CC(=O)C(C)(C)[C@@H]5CC[C@]43C)[C@@H]2C1 | 0.2 µM
